Results as given in patent publication US11738087B2, “Lymph directing prodrugs” (Monash University, priority 2015, dated 2023).

Tests used:
lipoprotein lipase (LPL) = assay: In vitro release of MPA from prodrugs in rat lymph supplemented with lipoprotein lipase; assay type: in vitro ADME; details: LPL 200 unit/ml, 37° C., n=1; FIG. 10
Experimental: In order to probe the release of free MPA from TG prodrugs in the lymphatics (the active site of MPA is in lymphocytes that are enriched in the lymphatic system), MPA prodrugs were incubated with rat lymph supplemented with lipoprotein lipase (LPL, 200 unit/ml). LPL is a key enzyme required for the hydrolysis of lipoprotein associated TG in normal physiological conditions and is therefore expected to be a key contributor to lipolysis of the re-esterified Drug-TG construct in plasma, largely via liberation of FAs in the sn-1 and the sn-3 position of the TG-mimetic, prior to drug release from the 2′ positon via esterase hydrolysis. LPL is tethered to lymphocytes or lymphatic/vascular endothelial cells under physiological conditions. In the current in vitro studies, rat lymph was therefore supplemented with LPL to better reflect the in vivo situation. To start hydrolysis, 10 μl of LPL solution (10,000 unit/ml) was added to a mixture of 10 μl of prodrug solution (1 mg/ml dissolved in acetonitrile) and 500 μl of blank Sprague Dawley rat lymph. The solution was incubated at 37° C. Samples (20 μl) of the incubation solution were taken at 0, 5, 10, 15, 30, 60, 90, 120 and 180 minutes post incubation and added to 980 μl of 9:1 (v/v) ACN-water to stop lipolysis. […] The supernatant was analysed by HPLC-MS/MS for MPA concentrations.

[1] = Lymphatic transport studies in rats (mesenteric lymph duct cannulated, intraduodenal infusion); details: for Transport of total TST derivatives in lymph (% of dose): intraduodenal infusion, anaesthetised, mesenteric lymph-duct cannulated female SD rats, mean ± SEM (n≥3) or mean ± range (n=2); for Fold increase (compared with control group dosed with TU): lymphatic transport, testosterone series, female SD rats
[2] = 'is thought to be'; cited from earlier work
[3] = Pharmacokinetic (PK) studies in rats after oral gavage (plasma free parent drug); details: for AUC0-24 h fold increase compared with TU group: plasma testosterone exposure; for Tmax / AUC0-24 h: plasma testosterone, mean ± SEM; for AUC0-24 h: normalized to 2 mg/kg equivalent testosterone dose; for Cmax: read-out: Cmax (nmol/L), plasma testosterone, conscious carotid artery cannulated SD female rats, normalized to 2 mg/kg equivalent testosterone dose, mean ± SEM
[4] = system: porcine pancreatic lipase; assay: In vitro hydrolysis of compounds by porcine pancreatic lipase (stability of monoglyceride forms); assay type: in vitro ADME; details: simulated intestinal micellar solution, pH 6.5, 37° C., up to 180 minutes; FIG. 9
Experimental: In vitro hydrolysis of testosterone prodrugs was performed via incubation with porcine pancreatic lipase. Briefly, pancreatic lipase solution was prepared prior to the hydrolysis experiment by dispersion of 1 g porcine pancreatin in 5 ml of lipolysis buffer. The suspension was mixed well and centrifuged at 3500 rpm for 15 minutes at 5° C. to provide a supernatant. An amount of 1000 ml of lipolysis buffer was prepared with 0.474 g of tris-maleate (2 mM), 0.206 g of CaCl2·H2O (1.4 mM) and 8.775 g of NaCl (150 mM) adjusted with NaOH to pH 6.5. To assess the potential for prodrug hydrolysis in the intestine, 20 μl of prodrug solution (1 mg/ml dissolved in acetonitrile), 900 μl of simulated intestinal micellar solution [prepared with 0.783 g of NaTDC (3 mM) and 0.291 g of phosphatidyl choline (0.75 mM) in 500 ml lipolysis buffer] and 100 μl of enzyme solution were incubated at 37° C. […] The supernatant was analysed by HPLC-MS for residual compound concentrations, and the potential products of compound hydrolysis were analysed.
On incubation with digestive enzymes, the monoglycerides forms of the prodrugs are formed very rapidly. The stability in simulated intestinal conditions is therefore better assessed by the stability of the monoglycerides form that is generated by the initial digestion process. […]

Row | Compound | Release of MPA on incubation with LPL supplemented rat lymph (lipoprotein lipase (LPL)) | Transport of total TST derivatives in lymph (% of dose) [1] | AUC0-24 h fold increase compared with TU group ([3]; SD female rats) | Tmax ([3]; SD female rats) [h] | AUC0-24 h ([3]; SD female rats) [µM·h] | Cmax [3] [nmol/L] | Fold increase (compared with control group dosed with TU) [1] | Stability of the monoglyceride form during in vitro incubation with porcine pancreatic lipase [4] | other results
1 | CCCCCCCCCCCCCCCC(=O)OCC(COC(=O)CCCCCCCCCCCCCCC)OC(=O)CC(C)CC(=O)OC(C)OC(=O)CC/C(C)=C/Cc1c(O)c2c(c(C)c1OC)COC2=O (stereo not shown) [Compound 11, (E)-1-(1,3-Bis(palmitoyloxy)propan-2-yl) 5-(1-((6-(4-hydroxy-6-methoxy-7-methyl-3-oxo-1,3-dihydroisobenzofuran-5-yl)-4-methylhex-4-enoyl)oxy)ethyl) 3-methylpentanedioate] | very rapid | – | – | – | – | – | – | – | –
2 | C[C@]12CC[C@H]3[C@@H](CCC4=CC(=O)CC[C@@]43C)[C@@H]1CC[C@@H]2O [Testosterone, testosterone] | – | Below LOQ* | – | – | – | – | – | – | –
3 | CCCCCCCCCCC(=O)O[C@H]1CC[C@H]2[C@@H]3CCC4=CC(=O)CC[C@]4(C)[C@H]3CC[C@]12C [TU, testosterone undecanoate, reference compound] | – | 1.9 ± 0.3 % of dose | 1.0 | 1.5 ± 0.0 | 0.0068 ± 0.0004 | 5.6 ± 0.5 | 1.0 | – | Bioavailability of testosterone after oral administration of the undecanoate ester [2]: < 5%
4 | 1-(1,3-Bis(palmitoyloxy)propan-2-yl) 4-((((8R,9S,10R,13S,14S,17S)-10,13-dimethyl-3-oxo-2,3,6,7,8,9,10,11,12,13,14,15,16,17-tetradecahydro-1H-cyclopenta[a]phen-anthren-17-yl)oxy)methyl) 2/3-methylsuccinate [Compounds 13/14] | – | 8.0 ± 2.5 % of dose | 94.6 | 1.4 ± 0.1 | 0.6453 ± 0.1449 | 568 ± 155 | 4.2 | much more stable | Systemic exposure of testosterone, fold higher than Compound 12 ([3]; SD female rats): ~13 fold
5 | CCCCCCCCCCCCCCCC(=O)OCC(COC(=O)CCCCCCCCCCCCCCC)OC(=O)CCC(=O)OCO[C@H]1CC[C@H]2[C@@H]3CCC4=CC(=O)CC[C@]4(C)[C@H]3CC[C@]12C [Compound 12, 1,3-Bis(palmitoyloxy)propan-2-yl ((((8R,9S,10R,13S,14S,17S)-10,13-dimethyl-3-oxo-2,3,6,7,8,9,10,11,12,13,14,15,16,17-tetradecahydro-1H-cyclopenta[a]phenanthren-17-yl)oxy)methyl) succinate] | – | – | – | – | – | – | – | labile | –
6 | CCCCCCCCCCCCCCCC(=O)OCC(COC(=O)CCCCCCCCCCCCCCC)OC(=O)CC(C)CC(=O)OCOC(=O)CC/C(C)=C/Cc1c(O)c2c(c(C)c1OC)COC2=O (stereo not shown) [Compound 10, (E)-1-(1,3-Bis(palmitoyloxy)propan-2-yl) 5-(((6-(4-hydroxy-6-methoxy-7-methyl-3-oxo-1,3-dihydroisobenzofuran-5-yl)-4-methylhex-4-enoyl)oxy)methyl) 3-methyl-pentanedioate] | very rapid | – | – | – | – | – | – | – | –
